# From US12059429B2, “Hornerin: a novel non-VEGF mediated angiogenic protein expressed in both human and mouse angiogenic endothelial cells and human pancreatic cancer cells” (University of Virginia Patent Foundation, priority 2018, dated 2024)
# Experiments:
# L3.6pl PDAC cells = assay: Subcutaneous L3.6pl PDAC xenograft tumor volume; type: in vivo, mouse
# Procedure: A tumor sample size of four was determined by power analysis based on prior tumor xenograft studies. For our 80% power analysis, the difference between means was 200 mm^3, standard deviation was 100 mm^3, and P-value<0.05 (P<0.05). Tumors were measured at least twice weekly until their volume was >1000 mm^3, at which point animals were euthanized. Tumor size data were collected from each tumor, with the exception of one tumor in the combination treatment experiment that was identified with 90% confidence via Grubb's Outlier Test. The following number of mice in each treatment cohort was evaluated for tumor outgrowth: (Scr siRNA/ctrl., N=15; Hrnr siRNA/ctrl., N=14; Scr siRNA/AV-951, N=8; Hrnr siRNA/AV-951, N=8).
# For tumor implantation, L3.6pl cells were grown under normal culture conditions for 72 hours prior to being trypsinized and enumerated. The cells were suspended in aliquots of 500,000 cells/50 μL Hanks Balanced Salt Solution (HBSS; Corning, Manassas, VA, USA) and 50 μL of Matrigel (BD Biosciences, San Jose, CA, USA) was added to each aliquot of cells prior to implantation. The cell-Matrigel slurry was injected subcutaneously into nu/nu mice on the flanks or orthotopically into the pancreas (Seaman et al., 2011). The injection site for subcutaneous tumors was monitored daily for growth and tumor volume was calculated form caliper measurements using the formula (width^2×length)/2.
# The VEGFR inhibitor AV-951 (Selleck Chemicals, Houston, TX, USA) was suspended in 0.5% methocel+0.5% Tween-20 in HBSS to increase viscosity and 50 μL of 1.0 mg/kg AV-951 or VC solution was administered once daily by oral gavage (22-gauge gavage needle (Kent Scientific, Torrington, CT, USA) connected to a 1 mL syringe). […] To prepare Hrnr siRNA and Silencer Select Negative Control #1 Scr siRNA (Invitrogen; catalog number 4390844) for injection, 10 μg of hornerin or control siRNA were combined with in vivo-jetPEI transfection reagent (Polyplus, France) in solution with 5% glucose per Polyplus instructions (total volume 50 μL). After a 30 minutes incubation, the siRNA solutions were injected slowly into the center of the tumor. A second independent hornerin knockdown experiment was conducted using a pooled set of three unique mouse Hrnr siRNA duplexes (5′-[…]-3′ (SEQ ID NO: 50); 5 ‘-[…]-3’ (SEQ ID NO: 51); 5 ‘-[…]-3’ (SEQ ID NO: 52)) and Scr siRNA (Origene, Rockville, MD, USA). The reagent preparation and injection protocol were similar to that described above.
# tumor vasculature = assay: Photoacoustic microscopy of tumor vasculature; type: in vivo, mouse; details: day 12
# Source text: Using an established PAM system (Wang & Hu, 2012; Ning et al., 2015a; Ning et al., 2015b), the tumor vasculature was characterized in vivo. Two laser wavelengths, 532 and 559 nm, were used to simultaneously quantify microvascular diameter, oxygen saturation, and blood flow at the same spatial scale (Ning et al., 2015a). The applied optical energies were 100 and 75 nJ, which are below the maximum permissible exposure energy. Throughout the experiment, mice were maintained under anesthesia with 1.5% vaporized isoflurane and the body temperature was kept at 37° C. All experimental procedures were carried out in conformity with the laboratory animal protocol approved by the Animal Care and Use Committee at the University of Virginia.
# tumor vessels = assay: Tumor vessel parameters in L3.6pl tumor sections (CD34, ACTA2, RAVE analysis); type: in vivo, mouse; details: four-group combination experiment, vs control
# Procedure: Following completion of the treatment schedule, the mice were killed, cardiac perfused, and the tumors were excised and fixed in formalin overnight. The tumors were paraffin embedded and cut into 5 (thin) or 50 μm (thick) sections. Tumor vessel parameters were evaluated in the following number of tumors for each treatment cohort: (Scr siRNA/ctrl., N=10; Hrnr siRNA/ctrl., N=10; Scr siRNA/AV-951, N=4; Hrnr siRNA/AV-951, N=4).
# Tumor sections were deparaffinized, rehydrated, heated in antigen retrieval solution (Vector), blocked for 30 minutes in blocking buffer, and incubated with anti-CD34 antibody (Abcam, ab8158, clone MEC14.7; 1:100) in blocking buffer overnight at 4° C. The sections were then incubated with goat anti-rat FITC secondary antibody (Abcam, ab6840; 1:100) in blocking buffer prior to mounting with Prolong Gold Antifade reagent (Invitrogen). Anti-actin, α-smooth muscle Cy3 antibody (Sigma, C6198, clone 1A4; 1:200) was added to the primary antibody solution if assaying for alpha-smooth muscle actin. To compare hornerin expression in vessels and tumor tissue treated with Hrnr siRNA and Scr siRNA, thin paraffin sections were deparaffinized and stained with anti-CD34 and anti-hornerin antibodies described. Images were collected using a Nikon TE 2000-E2 microscope (Nikon Instruments) equipped with a Melles Griot Argon Laser System (Melles Griot, Carlsbad, CA, USA) and a Nikon D-Eclipse C1 confocal attachment and analyzed by Measurement Tool in Image J. To measure the relative hornerin expression in tumor vessels, three vessel segments per image were isolated and their mean intensity and area were measured and recorded. A weighted mean intensity was calculated to correct for differences in selected area. To measure the relative hornerin expression in tumor tissue, the mean intensity from three square sections (75×75 pixel) of tumor tissue per image was measured and recorded.
# (§1) Vessel parameters were measured using RAVE software (Seaman et al., 2011). For detection of proliferation and apoptosis, the sections were incubated with the primary antibodies anti-Ki67 (Abcam, ab15580; 1:200) or anti-cleaved caspase 3 (Cell Signaling, 9661; 1:200), respectively, overnight at 4° C. followed by incubation with anti-rabbit AF594 (Abcam, 150080; 1:200).
# L3.6pl tumors = assay: Ki67 and cleaved caspase 3 immunofluorescence in tumor sections; type: in vivo, mouse; details: day 15 tumor sections
# Procedure: as §1
# tumor vascularity = assay: DCE-MRI and Ktrans measurement of L3.6pl tumors; type: in vivo, mouse; details: AV-951 1.0 mg/kg once daily oral gavage; AV-951 only vs control; combination vs AV-951
# Procedure: To assess the in vivo function of tumor vascularity, DCE-MRI was performed on a 7.0 T Clinscan small animal imaging system (Bruker, Ettlingen, Germany) using a 30 mm inner-diameter birdcage radiofrequency coil. Mice (N=7) were imaged prior to treating tumors with Hrnr and Scr siRNA and again 6 days after treatment. Mice treated with the VEGFR inhibitor AV-951 (N=5) were image pre-siRNA treatment and 6 days posttreatment. Mice were anesthetized with 1.25% isoflurane anesthesia, which was maintained during imaging. Respiration and ECG were monitored during imaging using an MRI-compatible system (SA Instruments, Stony Brook, NY, USA). An indwelling tail vein catheter was established for administration of the gadolinium contrast agent Gd-DTPA, which is required in DCE imaging. Mice were placed supine in the imaging system, and body temperature was maintained at 36° C.±1° C. using circulating, temperature controlled water. Tumors were localized using a spin-echo imaging sequence, and an imaging plane that transected both tumors was chosen for DCE imaging.
# A dual-Gd-bolus DCE-MRI acquisition strategy (Christian et al., 2004) was employed, which uses a low dose of contrast agent to accurately acquire the undistorted Gd concentration vs. time curve in the blood pool and a higher dose of contrast agent to acquire the Gd concentration vs. time curve in the tumor with high signal-to-noise ratio, since Gd-DTPA is known to have signal saturation effects at high doses in the blood pool (Christian et al., 2004). […]
# hornerin = assay: Immunoblot of hornerin in HUVECs treated with growth factors; type: cell-based, human; details: 24 hours treatment; growth factors at published B-max concentrations, EGF at increasing concentrations
# Procedure: HUVECs were cultured in 10 cm dishes for 24 hours prior to a change to media containing VEGF (at B-max concentration), TCM, or VC. After 24 hours treatment, the cells were washed with DPBST two times and lysed with radioimmunoprecipitation assay (RIPA) buffer (Thermo Scientific). Lysate protein concentrations were measured by the bicinchoninic acid assay (Pierce, Waltham, MA, USA) and equivalent amounts of protein were loaded into precast 4-15% tris-glycine eXtended (TGX) polyacrylamide gels (Bio-Rad, Hercules, CA, USA). The proteins were resolved by electrophoresis and transferred to nitrocellulose membranes using the iBlot system (Invitrogen, Carlsbad, CA, USA). The membranes were then washed in Tris-buffered saline+1% Tween-20 (TBST), blocked for 30 minutes in TBST+2% milk solution, and incubated overnight at 4° C. with primary antibodies anti-hornerin (Abcam, Cambridge, UK, ab78909; (1:1000)) and anti-HSP90 (Cell Signaling Technology, Danvers, MA, USA, 4877; (1:1000)). The following day the membranes were washed and subsequently incubated with the secondary antibodies anti-goat HRP (R&D Systems, Minneapolis, MN, USA, HAF109; 1:5000) and anti-rabbit HRP (GE Healthcare, NA934V; 1:5000) for 45 minutes at RT. […]
# Major constituents of TCM were determined using a Human Angiogenesis Antibody Array (Affymetrix, Santa Clara, CA, USA) per manufacturer's instructions. […]
Compound,"tumor volume decrease compared to control-treated animals (L3.6pl PDAC cells; day 5 post implantation, 1.0 mg/kg AV-951 once daily oral gavage) [fold]",reduction in tumor volume (discussion summary) (L3.6pl PDAC cells; monotherapy or combined therapies),tumor blood hemoglobin levels (tumor vasculature),tumor blood oxygen saturation compared to control (tumor vasculature) [fold],number of vessels per field (tumor vessels),vessel morphology (tumor vessels),cleaved caspase 3 levels in tumors relative to control (L3.6pl tumors),Ktrans values (in words) (tumor vascularity),hornerin expression in HUVECs (hornerin)
"COc1cc2nccc(Oc3ccc(NC(=O)Nc4cc(C)on4)c(Cl)c3)c2cc1OC [AV-951, 1-[2-chloro-4-(6,7-dimethoxyquinolin-4-yl)oxyphenyl]-3-(5-methyl-1,2-oxazol-3-yl)urea, reference compound]",2.3,two-fold,remained unchanged,1.5,fewer vessels were observed,morphologically similar to control vessels,two-fold increase,decrease,–
"bFGF: growth factor found in TCM, added to HUVECs at published B-max concentration",–,–,–,–,–,–,–,–,might stimulate hornerin expression
